# Results published in US12410179B2, “Modulators of TNF alpha activity and uses thereof” (RayThera, Inc., priority 2023, dated 2025).
# Target: TNFα (Homo sapiens, UniProt P01375)
# Assay: HEK-Blue hTNFα reporter assay
# Type: cell-based
# Design: purchased R&D biosystem (R&D Systems) 210-TA-020/CF
# Details: HEK-Blue hTNFα reporter cells, SEAP readout; read-out: IC50 Range
# How it was run: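 Compounds preincubated 1 h at 37 °C with recombinant hTNFα ([…]), then added to HEK293 NF-κB-SEAP reporter cells, 10000 cells/well, 24 h at 37 °C. SEAP read by QUANTI-Blue at OD620; % inhibition versus stimulated and unstimulated controls, IC50 by 4-parameter fit.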
# Chain of TNFα (P01375 77-233 limits assumed): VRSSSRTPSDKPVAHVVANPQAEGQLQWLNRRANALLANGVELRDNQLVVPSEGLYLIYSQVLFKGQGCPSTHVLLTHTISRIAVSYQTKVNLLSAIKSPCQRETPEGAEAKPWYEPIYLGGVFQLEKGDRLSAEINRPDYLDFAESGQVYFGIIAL
row,Structure (SMILES),IC50 [µM]
1,[2H]C([2H])([2H])N1C(=O)c2cccc(OC(F)F)c2[C@H]2C[C@@H]1c1nn3cc(F)c(-c4cnc(C5(N)CC(F)(F)C5)nc4)nc3c12 [Example 228],< 0.025
2,C[C@]1(O)C[C@](N)(c2ncc(-c3ccn4nc5c(c4c3)[C@@H]3C[C@H]5NC(=O)c4ccc(F)c(OC(F)F)c43)cn2)C1 [Example 229],< 0.025
3,[2H]C([2H])([2H])N1C(=O)c2cccc(OC(F)F)c2[C@H]2C[C@@H]1c1nn3ccc(-c4cnc([C@]5(N)C[C@@](C)(C#N)C5)nc4C)nc3c12 [Example 230],< 0.025
4,[2H]C([2H])([2H])N1C(=O)c2cccc(OC(F)F)c2[C@H]2C[C@@H]1c1nn3ccc(-c4cnc([C@]5(N)C[C@@](C)(C#N)C5)nc4C)cc3c12 [Example 231],< 0.025
5,[2H]C([2H])([2H])N1C(=O)c2cccc(OC(F)F)c2[C@H]2C[C@@H]1c1nn3ccc(-c4cnc([C@]5(C#N)C[C@@](C)(N)C5)nc4)nc3c12 [Example 232],0.1 to 1
6,NC1(c2ncc(-c3ccn4nc5c(c4c3)[C@@H]3C[C@H]5NC(=O)c4cccc(OC5CC5)c43)cn2)CCC1 [Example 233],0.025 to 0.1
7,Cc1nc(C2(N)CCC2)ncc1-c1ccn2nc3c(c2c1)[C@@H]1C[C@H]3NC(=O)c2cccc(OC(F)F)c21 [Example 234],< 0.025
8,C[C@]1(C#N)C[C@](N)(c2ncc(-c3nc4c5c(nn4cc3F)[C@H]3C[C@@H]5c4c(OC(F)F)cccc4C(=O)N3)cn2)C1 [Example 235],< 0.025
9,[2H]C([2H])([2H])N1C(=O)c2cccc(OC(F)F)c2[C@H]2C[C@@H]1c1nn3ccc(-c4cnc([C@]5(C#N)C[C@](C)(N)C5)nc4)nc3c12 [Example 236],0.1 to 1
10,[2H]C([2H])([2H])N1C(=O)c2cccc(OC(F)F)c2[C@H]2C[C@@H]1c1nn3cc(C)c(-c4cnc([C@]5(N)C[C@@](C)(C#N)C5)nc4)nc3c12 [Example 237],< 0.025
11,[2H]C([2H])([2H])N1C(=O)c2cccc(OC(F)F)c2[C@H]2C[C@@H]1c1nn3ccc(-c4cnc(C5(N)CC5)nc4)nc3c12 [Example 238],< 0.025
12,[2H]C([2H])([2H])N1C(=O)c2cccc(OC(F)F)c2[C@H]2C[C@@H]1c1nn3cc(F)c(-c4cnc(C5(N)CC5)nc4)nc3c12 [Example 239],< 0.025
13,[2H]C([2H])([2H])N1C(=O)c2cccc(OC(F)F)c2[C@H]2C[C@@H]1c1nn3cc(F)c(-c4cnc([C@]5(N)C[C@@](C)(C#N)C5)nc4)cc3c12 [Example 240],< 0.025
14,[2H]C([2H])([2H])N1C(=O)c2cccc(OC(F)F)c2[C@H]2C[C@@H]1c1nn3ccc(-c4cnc(C5(N)CCC5)nc4C)cc3c12 [Example 241],< 0.025
15,[2H]C([2H])([2H])N1C(=O)c2cccc(OC(F)F)c2[C@H]2C[C@@H]1c1nn3ccc(-c4cnc(C5(N)CCC5)nc4C)nc3c12 [Example 242],< 0.025
16,[2H]C([2H])([2H])N1C(=O)c2cccc(OC(F)F)c2[C@H]2C[C@@H]1c1nn3ccc(-c4cnc(C5(NC)CC5)nc4)nc3c12 [Example 243],0.025 to 0.1
17,[2H]C([2H])([2H])N1C(=O)c2cccc(OC(F)F)c2[C@H]2C[C@@H]1c1nn3cc(F)c(-c4cnc([C@]5(N)C[C@](C)(C#N)C5)nc4)cc3c12 [Example 244],< 0.025
18,[2H]C([2H])([2H])N1C(=O)c2cccc(OC(F)F)c2[C@H]2C[C@@H]1c1nn3cnc(-c4cnc(C5(N)CC5)nc4)cc3c12 [Example 245],< 0.025
19,[2H]C([2H])([2H])N1C(=O)c2cccc(OC(F)F)c2[C@H]2C[C@@H]1c1nn3ccc(-c4cnc([C@]5(O)C[C@@](C)(N)C5)c(F)c4)cc3c12 [Example 246],< 0.025
20,[2H]C([2H])([2H])N1C(=O)c2cccc(OC(F)F)c2[C@H]2C[C@@H]1c1nn3ccc(-c4cnc(C5(N)COC5)cn4)cc3c12 [Example 247],< 0.025
21,[2H]C([2H])([2H])N1C(=O)c2cccc(OC(F)F)c2[C@H]2C[C@@H]1c1nn3ccc(-c4cnc(C5(N)CCC5)nc4)cc3c12 [Example 248],< 0.025
22,[2H]C([2H])([2H])N1C(=O)c2cccc(OC(F)F)c2[C@H]2C[C@@H]1c1nn3ccc(-c4cnc([C@]5(O)C[C@@](C)(C#N)C5)c(F)c4)nc3c12 [Example 249],< 0.025
23,[2H]C([2H])([2H])N1C(=O)c2cccc(OC(F)F)c2[C@H]2C[C@@H]1c1nn3ccc(-c4cnc(C5(N)CCC5)c(F)c4)cc3c12 [Example 250],< 0.025
24,[2H]C([2H])([2H])N1C(=O)c2cccc(OC)c2[C@H]2C[C@@H]1c1nn3ccc(-c4cnc(C5(N)CCC5)nc4)cc3c12 [Example 251],< 0.025
25,[2H]C([2H])([2H])N1C(=O)c2cccc(OC(F)F)c2[C@H]2C[C@@H]1c1nn3ccc(-c4cnc([C@]5(O)C[C@@](C)(N)C5)cn4)cc3c12 [Example 253],< 0.025
26,[2H]C([2H])([2H])N1C(=O)c2cccc(OC(F)F)c2[C@H]2C[C@@H]1c1nn3ccc(-c4cnc(C(C)(C)N)nc4)cc3c12 [Example 254],< 0.025

row,Structure (SMILES),IC50 [µM]
1,[2H]C([2H])([2H])N1C(=O)c2cccc(OC(F)F)c2[C@H]2C[C@@H]1c1nn3ccc(-c4cnc(C5(N)CC5)nc4)cc3c12 [Example 255],< 0.025
2,[2H]C([2H])([2H])N1C(=O)c2cccc(OC(F)F)c2[C@H]2C[C@@H]1c1nn3cc(F)c(-c4cnc([C@]5(O)C[C@@](C)(N)C5)c(F)c4)cc3c12 [Example 256],< 0.025
3,[2H]C([2H])([2H])N1C(=O)c2cccc(OC(F)F)c2[C@H]2C[C@@H]1c1nn3ccc(-c4cnc([C@H](N)C5CC5)nc4)cc3c12 [Example 257],< 0.025
4,[2H]C([2H])([2H])N1C(=O)c2cccc(OC(F)F)c2[C@H]2C[C@@H]1c1nn3ccc(-c4cnc([C@@H](N)C5CC5)nc4)cc3c12 [Example 258],< 0.025
5,[2H]C([2H])([2H])N1C(=O)c2cccc(OC(F)F)c2[C@H]2C[C@@H]1c1nn3cc(C)c(-c4cnc([C@]5(N)C[C@@](C)(C#N)C5)nc4)cc3c12 [Example 259],< 0.025
6,[2H]C([2H])([2H])N1C(=O)c2cccc(OC(F)F)c2[C@H]2C[C@@H]1c1nn3cc(F)c(-c4cnc([C@]5(O)C[C@@](C)(N)C5)cn4)cc3c12 [Example 260],0.025 to 0.1
7,[2H]C([2H])([2H])N1C(=O)c2cccc(OC(F)F)c2[C@H]2C[C@@H]1c1nn3cnc(-c4cnc([C@]5(O)C[C@@](C)(N)C5)nc4)cc3c12 [Example 261],0.025 to 0.1
8,[2H]C([2H])([2H])N1C(=O)c2cccc(OC(F)F)c2[C@H]2C[C@@H]1c1nn3cnc(-c4cnc(C5(N)CCC5)nc4)cc3c12 [Example 262],< 0.025
9,[2H]C([2H])([2H])N1C(=O)c2cccc(OC(F)F)c2[C@H]2C[C@@H]1c1nn3cnc(-c4cnc([C@]5(N)C[C@@](C)(O)C5)nc4C)cc3c12 [Example 263],< 0.025
10,[2H]C([2H])([2H])N1C(=O)c2cccc(OC(F)F)c2[C@H]2C[C@@H]1c1nn3ccc(-c4cnc([C@](C)(N)CC#N)nc4)cc3c12 [Example 264],< 0.025
11,[2H]C([2H])([2H])N1C(=O)c2cccc(OC(F)F)c2[C@H]2C[C@@H]1c1nn3ccc(-c4cnc([C@@](C)(N)CC#N)nc4)cc3c12 [Example 265],< 0.025
12,[2H]C([2H])([2H])N1C(=O)c2cccc(OC(F)F)c2[C@H]2C[C@@H]1c1nn3ccc(-c4cnc(C5(N)CC5)cn4)cc3c12 [Example 266],< 0.025
13,[2H]C([2H])([2H])N1C(=O)c2cccc(OC(F)F)c2[C@H]2C[C@@H]1c1nn3cc(F)c(-c4cnc([C@]5(N)C[C@@](C)(O)C5)nc4)cc3c12 [Example 267],< 0.025
14,[2H]C([2H])([2H])N1C(=O)c2cccc(OC(F)F)c2[C@H]2C[C@@H]1c1nn3cc(F)c(-c4cnc([C@]5(N)C[C@@](C)(CO)C5)c(F)c4)nc3c12 [Example 268],< 0.025
15,[2H]C([2H])([2H])N1C(=O)c2cccc(OC(F)F)c2[C@H]2C[C@@H]1c1nn3ccc(-c4cnc([C@]5(N)C[C@@](C)(CO)C5)nc4)cc3c12 [Example 269],< 0.025
16,[2H]C([2H])([2H])N1C(=O)c2cccc(OC(F)F)c2[C@H]2C[C@@H]1c1nn3cc(F)c(-c4cnc([C@]5(N)C[C@@](C)(CO)C5)nc4)cc3c12 [Example 270],< 0.025
17,[2H]C([2H])([2H])N1C(=O)c2cccc(OC(F)F)c2[C@H]2C[C@@H]1c1nn3ccc(-c4cnc([C@]5(O)C[C@@](C)(C#N)C5)nc4)nc3c12 [Example 271],< 0.025
18,[2H]C([2H])([2H])N1C(=O)c2cccc(OC(F)F)c2[C@H]2C[C@@H]1c1nn3ccc(-c4cnc([C@]5(O)C[C@](C)(C#N)C5)nc4)nc3c12 [Example 272],< 0.025
19,[2H]C([2H])([2H])N1C(=O)c2cccc(OC(F)F)c2[C@H]2C[C@@H]1c1nn3cnc(-c4cnc([C@]5(O)C[C@](C)(C#N)C5)nc4)cc3c12 [Example 273],< 0.025
20,[2H]C([2H])([2H])N1C(=O)c2cccc(OC(F)F)c2[C@H]2C[C@@H]1c1nn3cc(F)c(-c4cnc([C@]5(N)C[C@@](C)(CO)C5)nc4)nc3c12 [Example 274],< 0.025
21,Cc1nc(C2(N)CCC2)ncc1-c1ccn2nc3c(c2n1)[C@@H]1C[C@H]3NC(=O)c2cccc(OC(F)F)c21 [Example 275],< 0.025
22,[2H]C([2H])([2H])N1C(=O)c2cccc(OC(F)F)c2[C@H]2C[C@@H]1c1nn3ccc(-c4cnc([C@@H](N)C5CC5)nc4)nc3c12 [Example 276],0.025 to 0.1
23,[2H]C([2H])([2H])N1C(=O)c2cccc(OC(F)F)c2[C@H]2C[C@@H]1c1nn3ccc(-c4cnc([C@H](N)C5CC5)nc4)nc3c12 [Example 277],< 0.025
24,[2H]C([2H])([2H])N1C(=O)c2cccc(OC(F)F)c2[C@H]2C[C@@H]1c1nn3ccc(-c4cnc(C5(O)CN(C)C5)nc4)cc3c12 [Example 278],< 0.025
25,[2H]C([2H])([2H])N1C(=O)c2cccc(OC(F)F)c2[C@H]2C[C@@H]1c1nn3ccc(-c4cnc([C@]5(C#N)C[C@@](C)(N)C5)nc4)cc3c12 [Example 279],< 0.025
